According to PubChem BioAssay (NCI):
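Results reflect a 48-hour exposure of cells in 96-well plates to compound at five concentrations. GI50 is the concentration that inhibits growth by half. TGI marks complete inhibition of growth.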

Assays:
Assay in all cases: growth of human tumour cells (NCI), 48 h
ACHN renal = test system: ACHN renal
CCRF-CEM leukemia = test system: CCRF-CEM leukemia
HCT-116 colon = test system: HCT-116 colon
HT29 colon = test system: HT29 colon
M14 melanoma = test system: M14 melanoma
NCI-H460 lung = test system: NCI-H460 lung
NCI-H522 lung = test system: NCI-H522 lung
OVCAR-4 ovarian = test system: OVCAR-4 ovarian
SW-620 colon = test system: SW-620 colon
SF-539 CNS = test system: SF-539 CNS

CS(=O)(=O)OC1CN2CCC1CC2 (configuration not stated)
TGI (ACHN renal): > 100 µM | TGI (CCRF-CEM leukemia): > 100 µM | TGI (HCT-116 colon): > 100 µM | TGI (HT29 colon): > 100 µM | TGI (M14 melanoma): > 100 µM | TGI (NCI-H460 lung): > 100 µM | TGI (NCI-H522 lung): > 100 µM | TGI (OVCAR-4 ovarian): > 100 µM | TGI (SW-620 colon): > 100 µM

Cc1ccc(NP(=O)(Oc2ccccc2)N(CCCl)CCCl)cc1 (configuration not stated)
TGI (ACHN renal): > 100 µM | TGI (HCT-116 colon): > 100 µM | TGI (HT29 colon): > 100 µM | TGI (M14 melanoma): > 100 µM | TGI (NCI-H522 lung): > 100 µM | TGI (OVCAR-4 ovarian): > 100 µM | TGI (SF-539 CNS): > 100 µM | TGI (SW-620 colon): > 100 µM

C=CCc1cc(-c2cc(CC=C)c(O)c(CNC)c2)cc(CNC)c1O
TGI (ACHN renal): 31.7 µM | TGI (CCRF-CEM leukemia): 57 µM | TGI (HCT-116 colon): 28.1 µM | TGI (HT29 colon): 29.1 µM | TGI (M14 melanoma): 30.5 µM | TGI (NCI-H460 lung): 30.1 µM | TGI (NCI-H522 lung): 28.3 µM | TGI (OVCAR-4 ovarian): 30.4 µM | TGI (SW-620 colon): 31.7 µM

O=C1N(c2ccccc2)C2(c3ccccc3)CC3CCCC13S2 (configuration not stated)
TGI (ACHN renal): > 100 µM | TGI (CCRF-CEM leukemia): > 100 µM | TGI (HCT-116 colon): > 100 µM | TGI (HT29 colon): > 100 µM | TGI (M14 melanoma): > 100 µM | TGI (NCI-H522 lung): 75.7 µM | TGI (OVCAR-4 ovarian): > 100 µM | TGI (SF-539 CNS): > 100 µM | TGI (SW-620 colon): > 100 µM

CCN(CC)CCCC(C)Nc1ccnc2cc3ccccc3cc12 (configuration not stated)
TGI (ACHN renal): 21 µM | TGI (CCRF-CEM leukemia): > 100 µM | TGI (HCT-116 colon): > 100 µM | TGI (M14 melanoma): > 100 µM | TGI (NCI-H460 lung): 24.4 µM | TGI (NCI-H522 lung): 29 µM | TGI (OVCAR-4 ovarian): 7.92 µM | TGI (SF-539 CNS): > 100 µM | TGI (SW-620 colon): > 100 µM

O=C(O)c1cc(=O)[nH]c(SCc2ccccc2)n1
TGI (ACHN renal): > 100 µM | TGI (HCT-116 colon): > 100 µM | TGI (HT29 colon): > 100 µM | TGI (M14 melanoma): > 100 µM | TGI (NCI-H460 lung): > 100 µM | TGI (NCI-H522 lung): > 100 µM | TGI (OVCAR-4 ovarian): > 100 µM | TGI (SW-620 colon): > 100 µM

CSc1nc(NC2OCC(OC(C)=O)C(OC(C)=O)C2OC(C)=O)c(N=C(C)C(C)=O)c(=O)[nH]1 (configuration not stated)
TGI (ACHN renal): > 100 µM | TGI (CCRF-CEM leukemia): > 100 µM | TGI (HCT-116 colon): > 100 µM | TGI (HT29 colon): > 100 µM | TGI (M14 melanoma): > 100 µM | TGI (NCI-H460 lung): > 100 µM | TGI (OVCAR-4 ovarian): > 100 µM | TGI (SF-539 CNS): > 100 µM | TGI (SW-620 colon): > 100 µM

COc1ccc(C2CC(c3cccc(Nc4ccncc4)c3)=NN2c2ccc(Cl)cc2)cc1 (configuration not stated)
GI50 (ACHN renal): 1.56 µM | TGI (ACHN renal): 2.9 µM | GI50 (CCRF-CEM leukemia): 2.5 µM | TGI (CCRF-CEM leukemia): 7.74 µM | GI50 (HCT-116 colon): 1.65 µM | TGI (HCT-116 colon): 3.36 µM | GI50 (M14 melanoma): 1.61 µM | TGI (M14 melanoma): 3.24 µM | GI50 (NCI-H460 lung): 1.81 µM | TGI (NCI-H460 lung): 3.37 µM | GI50 (NCI-H522 lung): 1.79 µM | TGI (NCI-H522 lung): 3.71 µM | GI50 (OVCAR-4 ovarian): 1.58 µM | TGI (OVCAR-4 ovarian): 3.06 µM | GI50 (SF-539 CNS): 1.63 µM | TGI (SF-539 CNS): 3.03 µM | GI50 (SW-620 colon): 1.61 µM | TGI (SW-620 colon): 3.19 µM

CCCCCCCCCCCCCCCc1ccc(OCC(O)CO)cc1 (configuration not stated)
TGI (ACHN renal): > 100 µM | TGI (CCRF-CEM leukemia): > 100 µM | TGI (HCT-116 colon): 31.3 µM | TGI (HT29 colon): 46.1 µM | TGI (M14 melanoma): 33.4 µM | TGI (NCI-H460 lung): 53.6 µM | TGI (NCI-H522 lung): 35.4 µM | TGI (OVCAR-4 ovarian): 40.8 µM | TGI (SF-539 CNS): > 100 µM | TGI (SW-620 colon): 49.1 µM

CCN1C=C/C(=C\C=C/c2cc[n+](CC)c3ccccc23)c2ccccc21
TGI (ACHN renal): 33.8 µM | TGI (CCRF-CEM leukemia): 30.9 µM | TGI (HCT-116 colon): 13.4 µM | TGI (HT29 colon): 13.8 µM | TGI (M14 melanoma): 16.9 µM | TGI (NCI-H460 lung): 11 µM | TGI (NCI-H522 lung): 23.1 µM | TGI (OVCAR-4 ovarian): 16.9 µM | TGI (SF-539 CNS): 9.08 µM | TGI (SW-620 colon): 16.2 µM

Cc1cccc2cc3c(ccc4ccccc43)c[n+]12
TGI (ACHN renal): > 100 µM | TGI (CCRF-CEM leukemia): > 100 µM | TGI (HCT-116 colon): > 100 µM | TGI (HT29 colon): > 100 µM | TGI (NCI-H460 lung): 93.7 µM | TGI (NCI-H522 lung): 38.2 µM | TGI (SF-539 CNS): 66.2 µM | TGI (SW-620 colon): > 100 µM

Nc1cc2c(nnn2C2OC(COCc3ccccc3)C(OCc3ccccc3)C2OCc2ccccc2)c(=O)[nH]1 (configuration not stated)
TGI (ACHN renal): > 100 µM | TGI (CCRF-CEM leukemia): > 100 µM | TGI (HCT-116 colon): 46.9 µM | TGI (HT29 colon): 41.8 µM | TGI (M14 melanoma): 64.4 µM | TGI (NCI-H460 lung): 92.3 µM | TGI (NCI-H522 lung): > 100 µM | TGI (OVCAR-4 ovarian): > 100 µM | TGI (SF-539 CNS): 69.5 µM | TGI (SW-620 colon): > 100 µM

O=C(C[C@H](NC(=O)OCc1ccccc1)C(=O)NC1Cc2ccccc2OC1=O)OCc1ccccc1 (some centres not stated)
TGI (CCRF-CEM leukemia): > 100 µM | TGI (HCT-116 colon): 76.3 µM | TGI (M14 melanoma): > 100 µM | TGI (NCI-H460 lung): > 100 µM | TGI (NCI-H522 lung): > 100 µM

O=S1(=O)C(c2ccccc2)C(N2CCCCC2)C1C1CC2c3ccccc3C1c1ccccc12 (configuration not stated)
TGI (ACHN renal): > 100 µM | TGI (CCRF-CEM leukemia): > 24.3 µM | TGI (HCT-116 colon): > 100 µM | TGI (HT29 colon): > 100 µM | TGI (M14 melanoma): > 100 µM | TGI (NCI-H460 lung): > 100 µM | TGI (NCI-H522 lung): > 100 µM | TGI (OVCAR-4 ovarian): > 100 µM | TGI (SF-539 CNS): > 100 µM | TGI (SW-620 colon): > 100 µM

O=C(C=P(c1ccccc1)(c1ccccc1)c1ccccc1)c1cccc(-c2cccc([N+](=O)[O-])c2)c1
TGI (ACHN renal): 15.7 µM | TGI (CCRF-CEM leukemia): 7.63 µM | TGI (HCT-116 colon): > 100 µM | TGI (HT29 colon): 4.17 µM | TGI (M14 melanoma): > 100 µM | TGI (NCI-H460 lung): > 100 µM | TGI (NCI-H522 lung): 4.4 µM | TGI (OVCAR-4 ovarian): 15.5 µM | TGI (SF-539 CNS): 54.4 µM | TGI (SW-620 colon): 26.8 µM
